Results on 39 molecules are retold here after US10246456B2, “IRAK4 inhibiting agents” (BIOGEN MA INC., priority 2014, dated 2019).

Molecules are shown by their SMILES.

The target of this assay is IRAK4 (Homo sapiens (Human), UniProt Q9NWZ3). Kind of assay: IRAK-4 AlphaScreen biochemical kinase assay. As to conditions: 1 nM IRAK4, 1 mM ATP, 3.5 h at RT. The procedure: The biochemical assay is in a AlphaScreen format. The kinase reaction is based on the IRAK-4 phosphorylation of a biotin labeled peptide. The phosphopeptide is incubated with anti-phosphothreonine antibody as well as streptavidin- and protein A-coated beads. Binding of the protein-A coated beads to the antibody and the streptavidin beads to the peptide, leads to an energy transfer from one bead to the other, ultimately producing a luminescent/fluorescent signal.
Sequence of IRAK4 (Q9NWZ3 whole entry, species assumed): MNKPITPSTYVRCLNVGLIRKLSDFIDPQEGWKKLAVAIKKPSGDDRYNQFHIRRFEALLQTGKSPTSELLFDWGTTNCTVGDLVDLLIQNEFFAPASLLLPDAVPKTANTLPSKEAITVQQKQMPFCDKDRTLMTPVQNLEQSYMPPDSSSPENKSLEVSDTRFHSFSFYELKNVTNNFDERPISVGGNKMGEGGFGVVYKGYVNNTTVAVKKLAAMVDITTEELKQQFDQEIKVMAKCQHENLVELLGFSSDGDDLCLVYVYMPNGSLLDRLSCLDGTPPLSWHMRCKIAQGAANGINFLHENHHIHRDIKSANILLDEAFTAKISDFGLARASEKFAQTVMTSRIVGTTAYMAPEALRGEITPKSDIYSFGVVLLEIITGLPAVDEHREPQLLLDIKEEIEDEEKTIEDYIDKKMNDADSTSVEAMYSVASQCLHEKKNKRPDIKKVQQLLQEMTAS
On the technique in general: In Alpha technology, singlet oxygen from a donor bead excites a nearby acceptor bead.

`Cc1cccc(-c2ncc3ccc(-c4cccc(N)c4)cn23)n1` [Example 42, 3-(3-(6-methylpyridin-2-yl)imidazo[1,5-a]pyridin-6-yl)aniline]: the IC50 is less than 100 nM.
As to `Cc1cccc(-n2ncc3cc(F)c(-c4cncc(N)c4)cc32)n1` [Example 43, 5-(5-fluoro-1-(6-methylpyridin-2-yl)-1H-indazol-6-yl)pyridin-3-amine], the IC50 is 100 to 1000 nM.
`Cc1cccc(-n2ncc3cc(C)c(-c4cncc(N)c4)cc32)n1` [Example 44, 5-(5-methyl-1-(6-methylpyridin-2-yl)-1H-indazol-6-yl)pyridin-3-amine] gave an IC50 of 1000 to 10000 nM.
Take `N#Cc1cccc(-n2ncc3ccc(-c4cccc(CN)n4)cc32)n1` [Example 46, 6-(6-(6-(aminomethyl)pyridin-2-yl)-1H-indazol-1-yl)picolinonitrile]: the IC50 lay within 100 to 1000 nM.
The molecule `NCc1cccc(-c2ccc3cnn(-c4cccc(C(N)=O)n4)c3c2)n1` [Example 47, 6-(6-(6-(aminomethyl)pyridin-2-yl)-1H-indazol-1-yl)picolinamide] yielded an IC50 of less than 100 nM.
Molecule `NCc1cccc(-c2ccc3cnn(-c4cccc(C(F)(F)F)n4)c3c2)n1` [Example 48, (6-(1-(6-(trifluoromethyl)pyridin-2-yl)-1H-indazol-6-yl)pyridin-2-yl)methanamine] showed a concentration for half-maximal inhibition (IC50) of less than 100 nM.
`COC(=O)c1cc(-c2cncc(N)c2)cc2c1cnn2-c1cccc(C#N)n1` [Example 49, methyl 6-(5-aminopyridin-3-yl)-1-(6-cyanopyridin-2-yl)-1H-indazole-4-carboxylate] gave a half-maximal inhibitory concentration (IC50) of less than 100 nM.
In the case of `COC(=O)c1cc(-c2cncc(N)c2)cc2c1cnn2-c1cccc(C(F)(F)F)n1` [Example 50, methyl 6-(5-aminopyridin-3-yl)-1-(6-(trifluoromethyl)pyridin-2-yl)-1H-indazole-4-carboxylate], the IC50 was less than 100 nM.
The value for `Nc1cncc(-c2cc(C(=O)O)c3cnn(-c4cccc(C(F)(F)F)n4)c3c2)c1` [Example 51, 6-(5-aminopyridin-3-yl)-1-(6-(trifluoromethyl)pyridin-2-yl)-1H-indazole-4-carboxylic acid] was less than 100 nM; that for `NC(=O)c1cc(-c2cncc(N)c2)cc2c1cnn2-c1cccc(C(F)(F)F)n1` [Example 52, 6-(5-aminopyridin-3-yl)-1-(6-(trifluoromethyl)pyridin-2-yl)-1H-indazole-4-carboxamide] was less than 100 nM; that for `NCc1cc(-c2cncc(N)c2)cc2c1cnn2-c1cccc(C(F)(F)F)n1` [Example 53, 5-(4-(aminomethyl)-1-(6-(trifluoromethyl)pyridin-2-yl)-1H-indazol-6-yl)pyridin-3-amine] was 100 to 1000 nM.
Molecule `Nc1cncc(-c2cc(CO)c3cnn(-c4cccc(C(F)(F)F)n4)c3c2)c1` [Example 54, (6-(5-aminopyridin-3-yl)-1-(6-(trifluoromethyl)pyridin-2-yl)-1H-indazol-4-yl)methanol] had an IC50 of less than 100 nM.
The molecule `Cc1cccc(-n2ncc3ccc(-c4cccc(C(C)N)n4)cc32)n1` (stereo not drawn) [Example 55, 1-(6-(1-(6-methylpyridin-2-yl)-1H-indazol-6-yl)pyridin-2-yl)ethanamine] came in with an IC50 of less than 100 nM.
As to `COC(=O)c1cc(-c2cccc(C(C)N)n2)cc2c1cnn2-c1cccc(C(F)(F)F)n1` (stereo not drawn) [Example 56, methyl 6-(6-(1-aminoethyl)pyridin-2-yl)-1-(6-(trifluoromethyl)pyridin-2-yl)-1H-indazole-4-carboxylate], the IC50 was less than 100 nM.
For the molecule `CC(N)c1cccc(-c2cc(CO)c3cnn(-c4cccc(C(F)(F)F)n4)c3c2)n1` (stereo not drawn) [Example 57, (6-(6-(1-aminoethyl)pyridin-2-yl)-1-(6-(trifluoromethyl)pyridin-2-yl)-1H-indazol-4-yl)methanol], the 50% inhibitory concentration (IC50) is less than 100 nM.
Molecule `CC(N)c1cccc(-c2cc(C(=O)N(C)C)c3cnn(-c4cccc(C(F)(F)F)n4)c3c2)n1` (stereo not drawn) [Example 58, 6-(6-(1-aminoethyl)pyridin-2-yl)-N,N-dimethyl-1-(6-(trifluoromethyl)pyridin-2-yl)-1H-indazole-4-carboxamide] showed an IC50 of 100 to 1000 nM.
In turn, `CNC(=O)c1cc(-c2cccc(C(C)N)n2)cc2c1cnn2-c1cccc(C(F)(F)F)n1` (stereo not drawn) [Example 59, 6-(6-(1-aminoethyl)pyridin-2-yl)-N-methyl-1-(6-(trifluoromethyl)pyridin-2-yl)-1H-indazole-4-carboxamide] returned an IC50 of less than 100 nM.
`CN(C)C(=O)c1cc(-c2cncc(N)c2)cc2c1cnn2-c1cccc(C(F)(F)F)n1` [Example 60, 6-(5-aminopyridin-3-yl)-N,N-dimethyl-1-(6-(trifluoromethyl)pyridin-2-yl)-1H-indazole-4-carboxamide] gave an IC50 of 1000 to 10000 nM.
`CNC(=O)c1cc(-c2cncc(N)c2)cc2c1cnn2-c1cccc(C(F)(F)F)n1` [Example 61, 6-(5-aminopyridin-3-yl)-N-methyl-1-(6-(trifluoromethyl)pyridin-2-yl)-1H-indazole-4-carboxamide]: the IC50 was less than 100 nM.
`NC1CCc2ccc(-c3ccc4cnn(-c5cccc(C(F)(F)F)n5)c4c3)nc21` (stereo not drawn) [Example 62, 2-(1-(6-(trifluoromethyl)pyridin-2-yl)-1H-indazol-6-yl)-6,7-dihydro-5H-cyclopenta[b]pyridin-7-amine] gave a concentration for half-maximal inhibition (IC50) of 1000 to 10000 nM.
`NC1CCCc2ccc(-c3ccc4cnn(-c5cccc(C(F)(F)F)n5)c4c3)nc21` (stereo not drawn) [Example 63, 2-(1-(6-(trifluoromethyl)pyridin-2-yl)-1H-indazol-6-yl)-5,6,7,8-tetrahydroquinolin-8-amine] gave a concentration for half-maximal inhibition (IC50) of less than 100 nM.
Molecule `Nc1cncc(-c2ccc3cnn(-c4cccc(C(=O)NCCO)n4)c3c2)c1` [Example 65, 6-(6-(5-aminopyridin-3-yl)-1H-indazol-1-yl)-N-(2-hydroxyethyl)picolinamide] displayed an IC50 of 100 to 1000 nM.
Regarding `Nc1cncc(-c2ccc3cnn(-c4cccc(C(=O)NCCCO)n4)c3c2)c1` [Example 66, 6-(6-(5-aminopyridin-3-yl)-1H-indazol-1-yl)-N-(3-hydroxypropyl)picolinamide], the IC50 fell in the range of 100 to 1000 nM.
As for `CC(O)CNC(=O)c1cccc(-n2ncc3ccc(-c4cncc(N)c4)cc32)n1` (stereo not drawn) [Example 67, 6-(6-(5-aminopyridin-3-yl)-1H-indazol-1-yl)-N-(2-hydroxypropyl)picolinamide], the figure is 1000 to 10000 nM.
In turn, `Nc1cncc(-c2ccc3cnn(-c4cccc(C(=O)N5CC(O)C5)n4)c3c2)c1` [Example 68, (6-(6-(5-aminopyridin-3-yl)-1H-indazol-1-yl)pyridin-2-yl)(3-hydroxyazetidin-1-yl)methanone] displayed an IC50 of 100 to 1000 nM.
As to `CN(C)CCNC(=O)c1cccc(-n2ncc3ccc(-c4cncc(N)c4)cc32)n1` [Example 69, 6-(6-(5-aminopyridin-3-yl)-1H-indazol-1-yl)-N-(2-(dimethylamino)ethyl)picolinamide], the IC50 fell in the range of 1000 to 10000 nM.
As for `N#CCCNC(=O)c1cccc(-n2ncc3ccc(-c4cncc(N)c4)cc32)n1` [Example 70, 6-(6-(5-aminopyridin-3-yl)-1H-indazol-1-yl)-N-(2-cyanoethyl)picolinamide], the IC50 lay in the range of 1000 to 10000 nM.
The value for `N#CCCCNC(=O)c1cccc(-n2ncc3ccc(-c4cncc(N)c4)cc32)n1` [Example 71, 6-(6-(5-aminopyridin-3-yl)-1H-indazol-1-yl)-N-(3-cyanopropyl)picolinamide] was 100 to 1000 nM; that for `NCCNC(=O)c1cccc(-n2ncc3ccc(-c4cncc(N)c4)cc32)n1` [Example 72, N-(2-aminoethyl)-6-(6-(5-aminopyridin-3-yl)-1H-indazol-1-yl)picolinamide] was less than 100 nM.
For the molecule `N#CCNC(=O)c1cccc(-n2ncc3ccc(-c4cncc(N)c4)cc32)n1` [Example 73, 6-(6-(5-aminopyridin-3-yl)-1H-indazol-1-yl)-N-(cyanomethyl)picolinamide], the IC50 was 1000 to 10000 nM.
The molecule `CS(=O)(=O)CCNC(=O)c1cccc(-n2ncc3ccc(-c4cncc(N)c4)cc32)n1` [Example 74, 6-(6-(5-aminopyridin-3-yl)-1H-indazol-1-yl)-N-(2-(methylsulfonyl)ethyl)picolinamide] showed an IC50 of 1000 to 10000 nM.
`N#Cc1cccc(-c2ncc3ccc(-c4cncc(N)c4)cn23)c1` [Example 75, 3-(6-(5-aminopyridin-3-yl)imidazo[1,5-a]pyridin-3-yl)benzonitrile] had a half-maximal inhibitory concentration (IC50) of 1000 to 10000 nM.
Consider `N#Cc1cccc(-c2ncc3ccc(-c4cncc(N)c4)cn23)n1` [Example 76, 6-(6-(5-aminopyridin-3-yl)imidazo[1,5-a]pyridin-3-yl)picolinonitrile], for which the 50% inhibitory concentration (IC50) is less than 100 nM.
The molecule `NC(=O)c1cccc(-c2ncc3ccc(-c4cncc(N)c4)cn23)n1` [Example 77, 6-(6-(5-aminopyridin-3-yl)imidazo[1,5-a]pyridin-3-yl)picolinamide] displayed an IC50 of 100 to 1000 nM.
`Nc1cncc(-c2ccc3cnc(-c4cccc(C(F)(F)F)n4)n3c2)c1` [Example 78, 5-(3-(6-(trifluoromethyl)pyridin-2-yl)imidazo[1,5-a]pyridin-6-yl)pyridin-3-amine] showed an IC50 of less than 100 nM.
In the case of `CC(N)c1cccc(-c2ccc3cnc(-c4cccc(C(F)(F)F)n4)n3c2)n1` (stereo not drawn) [Example 79, 1-(6-(3-(6-(trifluoromethyl)pyridin-2-yl)imidazo[1,5-a]pyridin-6-yl)pyridin-2-yl)ethanamine], the IC50 was less than 100 nM.
With `NCc1cc(N)cc(-c2ccc3cnn(-c4cccc(C(F)(F)F)n4)c3c2)n1` [Example 80, 2-(aminomethyl)-6-(1-(6-(trifluoromethyl)pyridin-2-yl)-1H-indazol-6-yl)pyridin-4-amine], the IC50 was less than 100 nM.
The molecule `N#CCc1cccc(-n2ncc3ccc(-c4cncc(N)c4)cc32)n1` [Example 81, 2-(6-(6-(5-aminopyridin-3-yl)-1H-indazol-1-yl)pyridin-2-yl)acetonitrile] had an IC50 of 100 to 1000 nM.
For the molecule `Nc1cncc(-c2ccc3cnn(-c4cccc(CC(=O)O)n4)c3c2)c1` [Example 82, 2-(6-(6-(5-aminopyridin-3-yl)-1H-indazol-1-yl)pyridin-2-yl)acetic acid], the IC50 is 1000 to 10000 nM.

The IC50 is the concentration that inhibits the measured activity by half. A low value points to greater potency in that assay.
